Data: publication PMC13114712, “The Influence of TDP1 Inhibitor Usnic Acid Derivative OL9-116 on the Effects of Topotecan in Human Cells” (Current Issues in Molecular Biology, 2026)

Assays:
[1] = target: T1, Δ148TDP1 (Homo sapiens, UniProt Q9NUW8); assay: real-time fluorimetric assay with FAM/BHQ1 oligonucleotide; format: biochemical
T1 construct: gene TDP1; Δ148TDP1, truncated form lacking the first 148 N-terminal amino acid residues (recombinant from E. coli)

[2] = target: T2, Tyrosyl-DNA phosphodiesterase 1 (TDP1) (Homo sapiens, UniProt Q9NUW8); assay: real-time fluorimetric assay with FAM/BHQ1 oligonucleotide; V(S) kinetics; EMSA and fluorescence anisotropy show no DNA competition; format: biochemical
T2 construct: TDP1 wild type (full-length, recombinant from E. coli, pLate31-TDP1)
T2 sequence (Q9NUW8 whole entry): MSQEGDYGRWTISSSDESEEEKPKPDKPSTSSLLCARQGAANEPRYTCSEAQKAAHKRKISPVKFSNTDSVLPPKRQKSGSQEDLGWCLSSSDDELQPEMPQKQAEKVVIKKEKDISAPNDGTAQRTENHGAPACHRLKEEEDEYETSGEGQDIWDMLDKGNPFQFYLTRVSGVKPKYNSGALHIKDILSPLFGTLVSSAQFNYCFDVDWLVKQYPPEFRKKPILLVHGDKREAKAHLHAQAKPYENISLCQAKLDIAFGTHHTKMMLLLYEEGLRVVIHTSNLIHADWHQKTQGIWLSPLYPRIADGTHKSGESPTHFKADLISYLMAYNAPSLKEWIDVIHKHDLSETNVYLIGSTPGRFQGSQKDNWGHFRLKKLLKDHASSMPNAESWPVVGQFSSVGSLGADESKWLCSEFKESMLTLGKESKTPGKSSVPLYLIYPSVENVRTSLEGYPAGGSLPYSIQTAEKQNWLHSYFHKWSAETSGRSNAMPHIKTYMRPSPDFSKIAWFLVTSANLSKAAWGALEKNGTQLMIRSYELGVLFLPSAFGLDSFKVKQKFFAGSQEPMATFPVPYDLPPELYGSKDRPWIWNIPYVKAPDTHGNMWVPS

[3] = target: TDP1 (wild type) (Homo sapiens, UniProt Q9NUW8 1-608); assay: EMSA; no inhibitor; 0.5 uM TDP1, 0.1 uM DNA; two complexes (1:1 and 2:1); 50 mM Tris-HCl pH 8.0, 50 mM NaCl, 7 mM beta-mercaptoethanol; EMSA 10 min at 4 C, 5% PAGE in 0.3x TBE; anisotropy temperature not stated; settings: protein: recombinant; label: 5'-(5,6)-FAM; single strand
Sequence of TDP1 (wild type) (Q9NUW8 whole entry): as above

T1 sequence (Q9NUW8 149-608, stated change not applied): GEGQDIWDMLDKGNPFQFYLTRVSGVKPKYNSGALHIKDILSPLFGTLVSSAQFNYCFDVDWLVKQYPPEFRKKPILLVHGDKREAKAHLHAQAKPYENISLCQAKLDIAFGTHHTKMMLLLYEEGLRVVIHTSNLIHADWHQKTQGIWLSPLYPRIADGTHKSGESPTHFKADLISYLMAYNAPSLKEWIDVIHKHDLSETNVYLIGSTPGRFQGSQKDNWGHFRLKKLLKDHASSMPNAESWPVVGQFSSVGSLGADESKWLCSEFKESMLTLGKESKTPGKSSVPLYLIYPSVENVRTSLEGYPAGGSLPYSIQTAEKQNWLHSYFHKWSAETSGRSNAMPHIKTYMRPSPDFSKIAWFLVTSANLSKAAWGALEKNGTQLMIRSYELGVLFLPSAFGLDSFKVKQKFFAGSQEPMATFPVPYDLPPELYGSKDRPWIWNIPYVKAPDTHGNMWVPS

**Q.** What does the source list for `CC(=O)c1c(O)c(C)c(O)c2c1OC1=CC(=O)C(=C(C)NCCCc3cc(C(C)(C)C)c(O)c(C(C)(C)C)c3)C(=O)C12C` (stereo not drawn) [OL9-116]?
**A.** IC50 [1]: 3.8 ± 0.8 µM; IC50 [2]: 1.4 ± 0.4 µM

B1: 5'-FAM 16-mer oligonucleotide (ssDNA)
DNA: AACGTCAGGGTCTTCC
**Q.** Does B1 bind [3]?
**A.** binds
